The values that follow come from US20040138274A1, “Novel pharmaceuticals” (priority 2002, published 2004).

For one experiment, the target named is T1, NEP from human kidney (Homo sapiens, UniProt P08473).
T1 construct: Enzyme: NEP from human kidney (prepared using the method of Kenny and Booth); from tissue; host or cells: human kidney
The experiment in a line: Assay 2: modified NEP fluorescence assay for potent tight-binding inhibitors. It counts as biochemical. As to conditions: as determined by Assay 2, substrate Abz-D-Arg-Arg-Leu-EDDnp, read-out: IC50 against NEP. How it is done:
Assay 2: This is a modification of Assay 1 which is adapted for potent tight-binding inhibitors.
Buffer: 50 mM Tris pH 7.4
Buffer containing 4% DMSO: 4 ml DMSO added to 96 ml buffer
Enzyme: NEP from human kidney (prepared using the method of Kenny and Booth, Biochem. J. 142, 575, 1974) aliquots stored at −70° C. The NEP activity of each preparation is determined by using serial dilutions of the preparation in this assay without inhibitor, a dilution that achieves 10 to 15% conversion of substrate is used in inhibitor studies.
Inhibitors: Inhibitors are dissolved in DMSO to give a 10 mM solution then further diluted to 1 mM in DMSO. A further dilution is made (40 μl into 960 μl buffer) to give 4×10^−5M inhibitor in buffer containing 4% DMSO. All further dilutions are made in buffer containing 4% DMSO. Inhibitors are assayed utilising an eight point (half log units) dose response curve in duplicate.
Substrate: The substrate (Abz-D-Arg-Arg-Leu-EDDnp, K. M. Carvalho et al. Analytical Biochem 237, 167-173 (1996)) is stored at −70° C. A 2 mM stock is made in buffer and aliquots stored at −70° C. for up to 1 month.
Stop solution: Phosphoramidon (Sigma R7385) 300 nM in buffer. Aliquots of 300 μM solution are stored at −20° C. and diluted 1000 fold in buffer.
Product: Two samples corresponding to 100% conversion of substrate to product are included in the assay to enable the % substrate turnover to be determined. Add 200 μl of 25 μM product and 100 μl stop solution. A stock of this is generated by incubating 1 ml of 25 μM substrate with 20 μl of enzyme stock overnight at 37° C., aliquot and store at −70° C.
Plates: Black Costar 96 well plate Cat# 3915
Fluorescence reader: BMG Fluostar, read at ex320 em420
1. Add 50 μl of inhibitor (4× assay conc)
3. Add 50 μl of enzyme dilution (1:800)
4. Incubate at 37° C. for 1 hour
5. Initiate the reaction by adding 20 μl of substrate
5. Incubate at 37° C. for 3 hours
6. Add 100 μl of stop solution.
7. Read fluorescence using a FLUOstar. (Ex320/Em420
Included in each assay are:
Non enzyme blanks (enzyme replaced with buffer and compound dilution replaced with 4% DMSO buffer)
Controls (compound dilution replaced with 4% DMSO buffer)
Total product (see below)

For experiment [1], the system named is black patients with essential hypertension. As to conditions: clinical study of 24 black patients with essential hypertension; cited from earlier work.
A further experiment deals with hypertensive patients. As to conditions: added to the ACE inhibitor lisinopril; clinical study involving 37 hypertensive patients; cited from earlier work.
In a further experiment the test system is hypertensive rats. As to conditions: cited from earlier work.

Molecules are shown by their SMILES.

T1 sequence (P08473 whole entry): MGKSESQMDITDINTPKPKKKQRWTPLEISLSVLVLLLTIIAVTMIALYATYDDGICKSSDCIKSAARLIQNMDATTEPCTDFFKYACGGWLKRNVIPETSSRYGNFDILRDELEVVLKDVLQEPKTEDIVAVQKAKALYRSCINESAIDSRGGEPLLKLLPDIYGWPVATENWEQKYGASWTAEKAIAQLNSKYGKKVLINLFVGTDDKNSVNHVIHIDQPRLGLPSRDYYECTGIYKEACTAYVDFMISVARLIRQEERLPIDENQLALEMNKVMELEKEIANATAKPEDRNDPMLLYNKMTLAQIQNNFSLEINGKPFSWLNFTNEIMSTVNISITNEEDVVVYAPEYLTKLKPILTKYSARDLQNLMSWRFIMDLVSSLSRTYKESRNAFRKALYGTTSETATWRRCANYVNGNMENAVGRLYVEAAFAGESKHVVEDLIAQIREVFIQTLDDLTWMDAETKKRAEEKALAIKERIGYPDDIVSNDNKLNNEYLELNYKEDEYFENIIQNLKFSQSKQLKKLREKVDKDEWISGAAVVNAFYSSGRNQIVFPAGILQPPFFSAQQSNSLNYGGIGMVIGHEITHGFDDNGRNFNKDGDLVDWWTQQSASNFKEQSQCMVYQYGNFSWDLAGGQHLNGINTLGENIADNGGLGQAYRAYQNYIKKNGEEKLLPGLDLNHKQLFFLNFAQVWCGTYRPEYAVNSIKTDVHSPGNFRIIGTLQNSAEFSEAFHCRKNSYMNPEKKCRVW

Regarding `CCC[C@H](CC1(C(=O)N[C@@H](Cc2ncc(-c3ccccc3)o2)C(=O)O)CCCC1)C(=O)O` [Example 29, (2R)-2-{1-[(1S)-1-Carboxy-2-(5-phenyl-oxazol-2-yl)-ethylcarbamoyl]-cyclopentylmethyl}-pentanoic Acid], the IC50 at NEP from human kidney was found to be 0.7 nM.

As for `CC1(C)OCC(COC(=O)C(Cc2ccccc2)N[C@@H](Cc2ccccc2)C(=O)NCCC(=O)O)O1` (stereo partly shown) [SCH34826], in experiment [1], the supine blood pressure entry is on record as “significantly lowered supine blood pressure”. Consider `COCC[C@H](CC1(C(=O)N[C@@H](Cc2ncc(-c3ccc(Cl)cc3)o2)C(=O)O)CCCC1)C(=O)O` [Example 30, (2S)-2-(1-{(1S)-1-Carboxy-2-[5-(4-chloro-phenyl)-oxazol-2-yl]-ethylcarbamoyl}-cyclopentylmethyl)-4-methoxy-butyric Acid], for which, on NEP from human kidney, the half-maximal inhibitory concentration (IC50) amounted to 0.3 nM.

Turning to `COCCOC[C@H](CC1(C(=O)N[C@H]2CC[C@@H](C(=O)O)CC2)CCCC1)C(=O)Oc1ccc2c(c1)CCC2` [candoxatril], in the experiment with hypertensive patients, the “supine and erect blood pressure” value is “marked reduction in both supine and erect blood pressure”. For `COCC[C@H](CC1(C(=O)N[C@@H](Cc2ncc(-c3ccccc3)o2)C(=O)O)CCCC1)C(=O)O` [Example 40, (2S)-2-{1-[(1S)-1-Carboxy-2-(5-phenyl-oxazol-2-yl)-ethylcarbamoyl]-cyclopentylmethyl}-4-methoxy-butyric Acid], at NEP from human kidney, the IC50 came to 0.3 nM. Consider `COCCOC[C@H](CC1(C(=O)N[C@H]2CC[C@@H](C(=O)O)CC2)CCCC1)C(=O)O` [candoxatrilat], for which the systolic blood pressure entry in the experiment on hypertensive rats is given as “lowers systolic blood pressure”. Consider `COCC[C@H](CC1(C(=O)N[C@@H](Cc2ncc(-c3ccc(F)cc3)o2)C(=O)O)CCCC1)C(=O)O` [Example 26], for which the IC50 at NEP from human kidney came to 0.3 nM.
